Reference: US9796751B2, “Glycyrrhetinic acid derivative and use thereof” (INI CORPORATION, priority 2013, dated 2017)

Assays:
LD50 test = details: in vivo; read-out: LD50 (lethal dose 50%)
Excerpt: LD50 (lethal dose 50%) of the glycyrrhetinic acid derivative (the compound of the above formula (2)) of the disclosed embodiment and LD50 of carbenoxolone were compared.

[1] = test system: human amyloid β1-42 peptide (Aβ) intraventricularly injected mice; experiment: Fear conditioned learning test in Alzheimer's disease model mice; type: in vivo, mouse; details: 20 mg/kg intraperitoneal three times a week; Aβ 300 pmol/3 μl intraventricular; vs physiological saline group; p<0.05
Procedure: The assessment of drug efficacy of the glycyrrhetinic acid derivative of the disclosed embodiment (Compound No. 37 group) was conducted using, as an animal model of neurodegenerative diseases, the human amyloid β1-42 peptide (Aβ) intraventricularly injected mice (Doi et al., Am J Pathol. 175 (5): 2121-32, 2009), which are widely used as an Alzheimer's disease model.
The mice were intraventricularly injected with 300 pmol/3 μl of Aβ, and from the day of the injection, they were intraperitoneally administered with 20 mg/kg body weight of the glycyrrhetinic acid derivative (Compound No. 37 group) of the disclosed embodiment or the same volume of physiological saline (vehicle group) three times a week. For control group was used wild type mouse (G57BL/6J) of the same age. Behavioral analysis was performed using the following fear conditioned learning test.
Associative learning was assessed using a fear conditioned learning test (Mouri et al., FASEB J. 21, 2135-2148, 2007; Nagai et al., FASEB J. 17, 50-52, and 2003). The mice were placed in a transparent acrylic cage with a stainless steel grid installed therein and were subjected to a 20 second tone stimulus (80 dB) and to an electric stimulus (0.6 mA) in the last 5 seconds. A set of this combination stimulus was repeated 4 times with 15 second intervals, thereby causing fear conditioning. […]

[2] = test system: C57BL/6J mouse with chronic constriction injury (CCI) of sciatic nerve; experiment: Pain behavior test (mechanical allodynia), chronic constriction injury (CCI) of sciatic nerve, von Frey hair; type: in vivo; details: once a day from 7th to 14th day after CCI operation, Gabapentin 30 mg/kg i.p.
Procedure: Chronic pain was caused by performing a chronic constriction injury (CCI) operation of sciatic nerve on a hind leg of a C57BL/6J mouse (8 week old, n=4 in each group). Threshold values of mechanical strength which indicated avoidance behavior were recorded by pressing a von Frey hair against the foot pad of the mouse's hind leg (from the previous day of the CCI operation to the 14th day after the operation).
Regarding drugs, the below drugs were administered once a day from the 7th day to the 14th day after the operation, and the therapeutic effects were studied. In this example, “Compound No. 37” is a compound represented by the above formula (2).
Control: the same volume of physiological saline
Gabapentin: 30 mg/kg, intraperitoneal administration
Compound No. 37: 100 mg/kg, subcutaneous administration
Compound No. 37: 20 mg/kg, subcutaneous administration
Compound No. 37: 20 mg/kg, intraperitoneal administration

[3] = test system: glutamate concentration in cerebrospinal fluid; experiment: Cerebrospinal fluid glutamate concentration determination (HPLC); type: in vivo, mouse; details: 14th day after CCI operation, compared with Gabapentin group
Procedure: On the 14th day after the CCI operation, cerebrospinal fluid were collected from the foramen magnum of the above-mentioned mice, and the glutamate concentration was measured quantitatively with HPLC.

[4] = test system: human superoxide dismutase 1 (SOD1) G93A mutant transgenic mice; experiment: Survival extension effect in ALS acute-onset model mice (Kaplan-Meier); type: in vivo, mouse; details: 20 mg/kg intraperitoneal three times a week from 7-8 weeks of age; p<0.05
Procedure: The assessment of drug efficacy was conducted using, as an animal model of neurodegenerative diseases, the human superoxide dismutase 1 (SOD1) G93A mutant transgenic mice, which are widely used as an acute-onset model of amyotrophic lateral sclerosis (ALS).
Starting at 7-8 weeks of age, which is considered to be an early ALS onset period, the mice were intraperitoneally administered with 20 mg/kg body weight of the glycyrrhetinic acid derivative of the disclosed embodiment (Compound No. 37 group) or the same volume of physiological saline (saline group) three times a week.
The survival analysis was performed using the Kaplan-Meier method.

[5] = Intracerebral migration after administration via various paths; type: in vivo, mice
Excerpt: In this respect, the presently disclosed embodiment has a significant effect.

physchem = type: physicochemical

| Compound | LD50 (LD50 test) | freezing behavior time in the contextual dependency test (memory disorder improvement) [1] | pain threshold value compared to Gabapentin group ([2]; 20 mg/kg intraperitoneal) | pain threshold value compared to Gabapentin group ([2]; 100 mg/kg subcutaneous) | glutamate concentration in the cerebrospinal fluid ([3]; 20 mg/kg intraperitoneal) | glutamate concentration in the cerebrospinal fluid ([3]; 20 mg/kg subcutaneous) | glutamate concentration in the cerebrospinal fluid ([3]; 100 mg/kg subcutaneous) | extension of survival on average vs saline group [4] | delivery into brain ([5]; injected hypodermically, model mice) | delivery into brain ([5]; intraarterial injection) | reaching central nervous system and medicinal effect ([5]; intraperitoneal injection, model mice) | delivery into brain ([5]; intravenous injection) | logD (physchem) |
| --- | --- | --- | --- | --- | --- | --- | --- | --- | --- | --- | --- | --- | --- |
| C[n+]1cccc(C(=O)N[C@H]2CC[C@]3(C)[C@H]4C(=O)C=C5[C@@H]6C[C@@](C)(C(=O)O)CC[C@]6(C)CC[C@@]5(C)[C@]4(C)CC[C@H]3C2(C)C)c1 [Compound No. 37] | > 5000 mg/kg | significantly moderated the observed reduction in freezing behavior time | significant increases of pain threshold values | significant increases of pain threshold values | a decrease of the glutamate concentration in the cerebrospinal fluid, which was equal to or more than that shown in Gabapentin group | a decrease of the glutamate concentration in the cerebrospinal fluid, which was equal to or more than that shown in Gabapentin group | a decrease of the glutamate concentration in the cerebrospinal fluid, which was equal to or more than that shown in Gabapentin group | about 17 days | is delivered into brain | delivered into brain | reach a central nervous system and exert a medicinal effect | delivered into brain | 2.94 |
| CC1(C)[C@@H](OC(=O)CCC(=O)O)CC[C@]2(C)[C@H]3C(=O)C=C4[C@@H]5C[C@@](C)(C(=O)O)CC[C@]5(C)CC[C@@]4(C)[C@]3(C)CC[C@@H]12 [carbenoxolone, reference compound] | 100 mg/kg |  |  |  |  |  |  |  |  |  |  |  |  |
